Data from ChEMBL document CHEMBL1127010, “Synthesis of 3-acetoxy-12-epoxy-25-hydroxy-cholesta-5,7-diene and 2-25-dihydroxyvitamin D3” (1993).

System: HL-60
Assay: Concentration required for induction of HL-60 cell differentiation (ATCC cells) to 50% was determined
Assay type: functional, Homo sapiens

- EC50: 600 nM
Structure (SMILES): C=C1C[C@H](O)[C@H](O)C/C1=C/C=C1\CCCC2(C)C1CCC2[C@H](C)CCCC(C)(C)O (stereo partly specified)
